biological target: mouse TRPM3α2 (mTRPM3) ion channel (Mus musculus (Mouse), UniProt J9SQF3); assay: TRPM3 ion channel driven Ca2+ uptake, Fluo-4 AM assay, mTRPM3alpha2 overexpressing flip-in HEK293 cells stimulated with pregnenolone sulfate; type: cell-based; details: PS 50 μM, cpds 200-299
Summary of the method: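 Flip-in HEK293 cells loaded with Fluo-4 AM were added to plates holding compound plus 50 μM pregnenolone sulfate in Ca2+-containing Krebs buffer. Fluorescence (ex 485/em 535 nm) read directly after cell addition; % inhibition relative to PS-stimulated vehicle and positive-control inhibitor.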

mouse TRPM3α2 (mTRPM3) ion channel, sequence (J9SQF3 other isoform, or with tags, fused parts or gaps): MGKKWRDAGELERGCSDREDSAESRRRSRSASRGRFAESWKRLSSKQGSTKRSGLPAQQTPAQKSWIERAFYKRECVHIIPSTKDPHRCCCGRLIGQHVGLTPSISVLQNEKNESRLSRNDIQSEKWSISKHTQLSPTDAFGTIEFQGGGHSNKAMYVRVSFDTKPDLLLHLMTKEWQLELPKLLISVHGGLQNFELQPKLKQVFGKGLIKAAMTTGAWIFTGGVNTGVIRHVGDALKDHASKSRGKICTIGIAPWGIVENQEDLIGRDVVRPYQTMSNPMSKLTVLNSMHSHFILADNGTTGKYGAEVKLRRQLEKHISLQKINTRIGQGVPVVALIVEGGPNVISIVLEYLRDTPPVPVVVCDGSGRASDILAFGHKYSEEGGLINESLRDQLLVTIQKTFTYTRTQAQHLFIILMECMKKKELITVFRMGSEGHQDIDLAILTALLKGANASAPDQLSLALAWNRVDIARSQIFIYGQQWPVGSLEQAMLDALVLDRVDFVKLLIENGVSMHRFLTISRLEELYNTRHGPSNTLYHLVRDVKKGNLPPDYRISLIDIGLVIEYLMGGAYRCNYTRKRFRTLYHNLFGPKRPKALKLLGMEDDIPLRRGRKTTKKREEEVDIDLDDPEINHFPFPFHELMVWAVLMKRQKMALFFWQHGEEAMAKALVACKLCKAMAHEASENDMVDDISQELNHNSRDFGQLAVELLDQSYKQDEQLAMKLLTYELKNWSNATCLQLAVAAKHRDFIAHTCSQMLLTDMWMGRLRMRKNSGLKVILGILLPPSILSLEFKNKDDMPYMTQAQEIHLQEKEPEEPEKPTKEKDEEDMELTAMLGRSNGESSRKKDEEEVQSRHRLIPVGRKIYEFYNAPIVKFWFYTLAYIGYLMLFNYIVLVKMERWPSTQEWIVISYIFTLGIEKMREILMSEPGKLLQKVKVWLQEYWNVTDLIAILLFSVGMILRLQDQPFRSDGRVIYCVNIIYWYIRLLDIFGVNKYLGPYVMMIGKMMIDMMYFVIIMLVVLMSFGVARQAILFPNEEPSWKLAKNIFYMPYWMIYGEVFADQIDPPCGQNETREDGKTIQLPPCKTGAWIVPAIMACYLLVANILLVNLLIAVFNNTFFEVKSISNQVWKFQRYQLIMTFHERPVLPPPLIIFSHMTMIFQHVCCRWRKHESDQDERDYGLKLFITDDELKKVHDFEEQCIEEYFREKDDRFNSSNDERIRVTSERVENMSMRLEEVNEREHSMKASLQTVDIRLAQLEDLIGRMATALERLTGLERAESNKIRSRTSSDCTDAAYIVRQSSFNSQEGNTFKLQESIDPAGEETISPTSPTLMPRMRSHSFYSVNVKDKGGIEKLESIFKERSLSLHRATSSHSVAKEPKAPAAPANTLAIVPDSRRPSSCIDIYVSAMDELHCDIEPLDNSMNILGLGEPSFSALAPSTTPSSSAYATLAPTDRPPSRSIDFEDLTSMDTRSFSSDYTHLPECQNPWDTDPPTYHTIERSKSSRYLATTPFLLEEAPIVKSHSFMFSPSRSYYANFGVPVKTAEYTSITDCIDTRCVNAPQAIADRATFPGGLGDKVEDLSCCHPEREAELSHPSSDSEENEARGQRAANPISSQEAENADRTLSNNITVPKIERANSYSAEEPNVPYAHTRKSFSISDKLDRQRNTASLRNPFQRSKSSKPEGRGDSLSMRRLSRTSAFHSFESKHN

Structure (SMILES) | IC50 [µM]
Cc1ncc(COc2ccc3oc(C)c(C(=O)N[C@@H](CO)C(N)=O)c3c2)o1 [compound 283, (S)-N-(1-amino-3-hydroxy-1-oxopropan-2-yl)-2-methyl-5-((2-methyloxazol-5-yl)methoxy)benzofuran-3-carboxamide] | < 1

same assay, conditions: PS 50 μM, cpds 300-399

Structure (SMILES) | IC50 [µM]
Cc1oc2ccc(OCc3cccnc3C(F)F)cc2c1C(=O)NC1(CO)CCOCC1 [compound 343, 5-((2-(difluoromethyl)pyridin-3-yl)methoxy)-N-(4-(hydroxymethyl)tetrahydro-2H-pyran-4-yl)-2-methylbenzofuran-3-carboxamide] | < 1
CNC(=O)[C@H](CO)NC(=O)c1c(C)oc2ccc(OCc3scnc3C)cc12 [compound 306, (S)-N-(3-hydroxy-1-(methylamino)-1-oxopropan-2-yl)-2-methyl-5-((4-methylthiazol-5-yl)methoxy)benzofuran-3-carboxamide] | < 1
Cc1ncc(COc2ccc3oc(C)c(C(=O)NCC4(C#N)CC4)c3c2)s1 [compound 370, N-((1-cyanocyclopropyl)methyl)-2-methyl-5-((2-methylthiazol-5-yl)methoxy)benzofuran-3-carboxamide] | < 1
Cc1oc2ccc(OCc3c(F)cnn3C)cc2c1C(=O)NC1(CO)CCOCC1 [compound 357, 5-((4-fluoro-1-methyl-1H-pyrazol-5-yl)methoxy)-N-(4-(hydroxymethyl)tetrahydro-2H-pyran-4-yl)-2-methylbenzofuran-3-carboxamide] | < 1
Cc1oc2ccc(OCc3cccnc3C(F)F)cc2c1C(=O)NC1(CO)COC1 [compound 341, 5-((2-(difluoromethyl)pyridin-3-yl)methoxy)-N-(3-(hydroxymethyl)oxetan-3-yl)-2-methylbenzofuran-3-carboxamide] | < 1
CNC(=O)C1(NC(=O)c2c(C)oc3ccc(OCc4scnc4C)cc23)COC1 [compound 324, 2-methyl-N-(3-(methylcarbamoyl)oxetan-3-yl)-5-((4-methylthiazol-5-yl)methoxy)benzofuran-3-carboxamide] | < 1

same assay, conditions: PS (50 μM) stimulated, cpd 001-199

Structure (SMILES) | IC50 [µM]
Cc1ncsc1COc1ccc2oc(C)c(C(=O)NC3COCC3O)c2c1 (single isomer, unassigned; dia 1) [162-Dia 1-En1] | < 1
Cc1ncsc1COc1ccc2oc(C)c(C(=O)NC3(CO)CCOCC3)c2c1F [compound 177, 4-fluoro-N-(4-(hydroxymethyl)tetrahydro-2H-pyran-4-yl)-2-methyl-5-((4-methylthiazol-5-yl) -methoxy)benzofuran-3-carboxamide] | < 1
Cc1oc2ccc(OCc3cccnc3C(F)(F)F)cc2c1C(=O)NC1CNCC1(F)F (single isomer, unassigned) [cpd 105-En 1, N-(4,4-difluoropyrrolidin-3-yl)-2-methyl-5-((2-(trifluoromethyl)pyridin-3-yl)methoxy)benzofuran-3-carboxamide] | < 1
Cc1oc2ccc(OCc3cnccc3Cl)cc2c1C(=O)NC1CCNCC1(F)F (centres unmarked) [compound 068, 5-((4-chloropyridin-3-yl)methoxy)-N-(3,3-difluoropiperidin-4-yl)-2-methylbenzofuran-3-carboxamide] | < 1
Cc1oc2ccc(OCc3cccnc3C(F)(F)F)cc2c1C(=O)Nc1ccn(C)n1 [compound 146, 2-methyl-N-(1-methyl-1H-pyrazol-3-yl)-5-((2-(trifluoromethyl)pyridin-3-yl)methoxy)benzofuran-3-carboxamide] | < 1
Cc1oc2ccc(OCC3CCOCC3)cc2c1C(=O)O [compound 015, 2-methyl-5-((tetrahydro-2H-pyran-4-yl)methoxy)benzofuran-3-carboxylic acid] | > 20
Cc1ncsc1COc1ccc2oc(C)c(C(=O)NC3CCN(CC(F)(F)F)CC3)c2c1 [compound 166, 2-methyl-5-((4-methylthiazol-5-yl)methoxy)-N-(1-(2,2,2-trifluoroethyl)piperidin-4-yl)benzofuran-3-carboxamide] | < 1

same assay, conditions: PS (50 μM) stimulated, cpds. 400-499

Structure (SMILES) | IC50 [µM]
Cc1ncc(COc2ccc3oc(C)c(C(=O)NC(CO)c4nc5ccccc5[nH]4)c3c2)s1 (single isomer, unassigned) [cpd 401-En 2] | 1 to 20
Cc1oc2ccc(OCc3cccnc3O)cc2c1C(=O)NC(C)(C)CO [compound 485, N-(1-hydroxy-2-methylpropan-2-yl)-5-((2-hydroxypyridin-3-yl)methoxy)-2-methylbenzofuran-3-carboxamide] | < 1
Cc1ncsc1COc1ccc2oc(C)c(C(=O)NCC(F)F)c2c1 [compound 498, N-(2,2-difluoroethyl)-2-methyl-5-((4-methylthiazol-5-yl)methoxy)benzofuran-3-carboxamide] | < 1
Cc1oc2ccc(OCc3cccnc3O)cc2c1C(=O)NC1(C(N)=O)CCC1 [compound 473, N-(1-carbamoylcyclobutyl)-5-((2-hydroxypyridin-3-yl)methoxy)-2-methylbenzofuran-3-carboxamide] | < 1
Cc1oc2ccc(OCc3cccnc3O)cc2c1C(=O)NC(C)(C)C(N)=O [compound 443, N-(1-amino-2-methyl-1-oxopropan-2-yl)-5-((2-hydroxypyridin-3-yl)methoxy)-2-methylbenzofuran-3-carboxamide] | < 1
Cc1ncc(COc2ccc3oc(C)c(C(=O)NC(COC(F)F)C(N)=O)c3c2)s1 (single isomer, unassigned) [447-En 1, N-(1-amino-3-(difluoromethoxy)-1-oxopropan-2-yl)-2-methyl-5-((2-methylthiazol-5-yl)methoxy)benzofuran-3-carboxamide] | < 1

same assay, conditions: PS (50 μM) stimulated, cpds. 500-599

Structure (SMILES) | IC50 [µM]
Cc1oc2ccc(OCc3ccc(F)cn3)cc2c1C(=O)NC1CCNCC1(F)F (single isomer, unassigned) [cpd 568-En 2] | 1 to 20
Cc1csc(COc2ccc3oc(C)c(C(=O)NC4CCNCC4(F)F)c3c2)n1 (single isomer, unassigned) [cpd 552-En 1] | < 1
Cc1oc2ccc(OCc3cccnc3O)cc2c1C(=O)NC1(CO)CCOC1 (single isomer, unassigned) [cpd 535-En 1] | < 1
Cc1ncsc1COc1ccc2oc(C)c(C(=O)N(C)C3(C(N)=O)COC3)c2c1 [compound 589, N-(3-carbamoyloxetan-3-yl)-N,2-dimethyl-5-((4-methylthiazol-5-yl)methoxy)benzofuran-3-carboxamide] | 1 to 20
Cc1ncc(COc2ccc3oc(C)c(C(=O)NC4(CO)CCNC4)c3c2)s1 (single isomer, unassigned) [530-En 2, N-(3-(hydroxymethyl)pyrrolidin-3-yl)-2-methyl-5-((2-methylthiazol-5-yl)methoxy)benzofuran-3-carboxamide] | < 1
Cc1cnc(COc2ccc3oc(C)c(C(=O)NC4CCNCC4(F)F)c3c2)cn1 (single isomer, unassigned) [cpd 554-En 1] | < 1
Cc1coc(COc2ccc3oc(C)c(C(=O)NC4CCNCC4(F)F)c3c2)n1 (single isomer, unassigned) [cpd 551-En 2] | 1 to 20
Cc1oc2ccc(OCC3(C)COC3)cc2c1C(=O)NC1CCNCC1(F)F (single isomer, unassigned) [cpd 550-En 1] | 1 to 20
Cc1ncsc1COc1cc(F)c2oc(C)c(C(=O)NC3CCNCC3(F)F)c2c1 (single isomer, unassigned) [cpd 573-En 2] | 1 to 20
Cc1oc2ccc(OCc3cn(C)nn3)cc2c1C(=O)NC1CCNCC1(F)F (single isomer, unassigned) [cpd 540-En 2] | > 20

same assay, conditions: PS (50 μM) stimulated, cpds. 608-666

Structure (SMILES) | IC50 [µM]
Cc1oc2ccc(OCc3ccccn3)cc2c1C(=O)NC1COCC1(F)F (single isomer, unassigned) [cpd 647-En 1] | < 1
Cc1oc2ccc(OCc3ccnn3C)cc2c1C(=O)NC1COCC1(F)F (single isomer, unassigned) [cpd 642-En 1] | < 1
Cc1oc2ccc(OCc3nccn3C)cc2c1C(=O)NC1CNCC1(F)F (single isomer, unassigned) [cpd 638-En 2] | 1 to 20
Cc1ncsc1COc1ccc2oc(C)c(C(=O)NC(C)(C)CCO)c2c1 [compound 652, N-(4-hydroxy-2-methylbutan-2-yl)-2-methyl-5-((4-methylthiazol-5-yl)methoxy)benzofuran-3-carboxamide] | < 1
COc1cc(COc2ccc3oc(C)c(C(=O)NC4(CO)CCOCC4)c3c2)ccn1 [compound 629, N-(4-(hydroxymethyl)tetrahydro-2H-pyran-4-yl)-5-((2-methoxypyridin-4-yl)methoxy)-2-methylbenzofuran-3-carboxamide] | < 1
Cc1cnc(COc2ccc3oc(C)c(C(=O)NC4(CO)CCOCC4)c3c2)s1 [compound 620, N-(4-(hydroxymethyl)tetrahydro-2H-pyran-4-yl)-2-methyl-5-((5-methylthiazol-2-yl)methoxy)benzofuran-3-carboxamide] | < 1

same assay, conditions: PS (50 μM) stimulated, cpds. 667-751

Structure (SMILES) | IC50 [µM]
Cc1oc2ccc(OCc3cnc(C(C)C)s3)cc2c1C(=O)N[C@@H](CO)C(N)=O [compound 682, (S)-N-(1-Amino-3-hydroxy-1-oxopropan-2-yl)-5-((2-isopropylthiazol-5-yl)methoxy)-2-methylbenzofuran-3-carboxamide] | < 1
Cc1ncc(COc2ccc3oc(C)c(C(=O)NC(C)(CO)C(N)=O)c3c2)o1 (single isomer, unassigned) [cpd 722-En 2] | < 1
Cc1ncc(COc2ccc3oc(C)c(C(=O)NC4CCOCC4(F)F)c3c2)s1 (single isomer, unassigned) [cpd 724-En 1] | < 1
Cc1ncsc1COc1ccc2oc(C(F)F)c(C(=O)N[C@@H](CO)C(N)=O)c2c1 [compound 742, (S)-N-(1-amino-3-hydroxy-1-oxopropan-2-yl)-2-(difluoromethyl)-5-((4-methylthiazol-5-yl)methoxy)benzofuran-3-carboxamide] | < 1
Cc1ncsc1COc1ccc2oc(C)c(C(=O)NC3(C(F)F)CCC3)c2c1 [compound 721, N-(1-(Difluoromethyl)cyclobutyl)-2-methyl-5-((4-methylthiazol-5-yl)methoxy)benzofuran-3-carboxamide] | < 1
